Experimental data from patent US12157740B2, “Triazolopyridines and triazolopyrimidines that lower stress-induced p-tau” (NantNeuro, LLC, priority 2015, dated 2024).

Columns and labels:
[1] = molecular target: T1, CRFR2 (Homo sapiens, UniProt Q13324); test: binding to CRFR2 (Ki)
T1 sequence (Q13324 1-411): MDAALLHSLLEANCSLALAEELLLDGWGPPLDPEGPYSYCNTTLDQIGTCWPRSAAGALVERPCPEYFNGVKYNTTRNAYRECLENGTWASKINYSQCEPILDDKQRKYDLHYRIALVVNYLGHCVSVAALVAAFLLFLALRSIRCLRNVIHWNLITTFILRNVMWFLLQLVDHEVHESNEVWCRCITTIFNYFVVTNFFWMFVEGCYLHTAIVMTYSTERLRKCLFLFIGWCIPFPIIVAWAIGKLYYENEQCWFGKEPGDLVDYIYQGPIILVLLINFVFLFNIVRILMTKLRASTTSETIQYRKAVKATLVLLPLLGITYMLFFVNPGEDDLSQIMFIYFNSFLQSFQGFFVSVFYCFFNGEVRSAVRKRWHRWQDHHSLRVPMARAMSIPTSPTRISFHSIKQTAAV

[2] = test system: p-tau; test: cortisol-induced p-tau increase in vitro (screen of clinical library of CRF-1 inhibitors); format: cell-based
Text: To identify therapeutic candidates, a clinical library of CRF-1 inhibitors to was screened to determine their effects on cortisol-induced p-tau increases. […] J03 was shown specifically to inhibit stress-induced p-tau increases by cortisol in vitro.

[3] = test system: tau and phospho-tau in SHSY-5Y cells; test: CRF-induced tau, p-tau and sAPPα changes in SHSY-5Y cells; format: cell-based; conditions: for p-tau/tau ratio: FIG. 32C
[4] = test system: tau and p-tau in SH-Sy5Y cells; test: screens for tau and p-tau levels in SH-Sy5Y cells (no CRF stated); format: cell-based; conditions: screen of FIG. 28B
Method: As described below, in vitro studies were performed using SHSY-5Y cells. These cells are a useful neurological model that differentiate into cells with morphological and biochemical characteristics of mature neurons including mature isoforms of tau. […]

[5] = in vivo pharmacokinetics, plasma and brain levels; design: species or system mouse
[6] = test system: J20 mice; test: J03 pilot study #1 in J20 mice (SQ, 12 days); format: in vivo, mouse
Method: (§1) Animal experiments were performed using J20 mice. The J20 mouse is a model of for Alzheimer's disease. This model overexpresses human APP with two mutations linked to familial Alzheimer's disease (the APP KM670/671NL (Swedish) and 5APP V717F (Indiana) mutations).
In pilot study #1, J20 mice housed singly were treated by SQ injection of J03 in PEG/b-MCD at 10 mkd for 12 days. NOR analysis of object memory (N=5/group) was performed. The results are illustrated in FIGS. 10D-10I. […] There was no difference in Aβ1-40 (FIG. 10E), but a decrease in Aβ1-42 (FIG. 10F).

[7] = test system: J20 mice; test: J03 pilot study #2 in J20 mice (oral, longer duration); format: in vivo, mouse
Method: as §1
Based on these promising results, the study was repeated (pilot study #2) with oral delivery and a longer duration.

[8] = test system: J20 mice; test: J17 pilot study in J20 mice (oral, 28 days); format: in vivo, mouse; conditions: oral 28 days
Method: as §1
In a J17 pilot study (#1 pilot study) male and female J20 mice were housed singly and treated with J17 at 10 rnkd by oral delivery for 28 days.

[9] = test system: tau and p-tau; test: effect of J03 and J19 on tau and p-tau (FIG. 39E-39F, system not given); conditions: FIG. 39E
Text: JI9 decreased tau and both J03 and JI9 decreased p-tau (FIG. 39E). Therefore, while the p-tau/tau ratio looks unchanged for J19 FIG. 39F. This is due to the tau decrease and not due to a lack of effect.

[10] = CRF-1 at 100 nM for 3 days, compound at 20 nM, FIG. 29A
[11] = oral delivery, longer duration, J20 mice

CCC(COC)n1nnc2c(Nc3ccc(OC)cc3C)nc(C)cc21 (stereo not drawn) [J03, N-(4-Methoxy-2-methylphenyl)-1-[1-(methoxymethyl)propyl]-6-methyl-1H-1,2,3-triazolo[4,5-c]pyridine-4-amine]
Ki [1]: > 10 µM | stress-induced p-tau increases by cortisol [2]: inhibit | p-tau [3, 10]: decreased | total tau [3, 10]: decreased | tau after exposure to CRF ([3]; FIG. 21D): decreased | p-tau after exposure to CRF ([3]; FIG. 21E): decreased | tau increases induced by CRF ([3]; SHSY-5Y cells cultured without serum, CRF at increasing concentrations, FIG. 10A): reduces | phospho-tau (p-tau) increases induced by CRF ([3]; SHSY-5Y cells cultured without serum, CRF at increasing concentrations, FIG. 10B): reduces | sAPPα increase, significance ([3]; at 100 nM CRF, FIG. 32D): reached significance | p-tau/tau ratio ([3]; at 50 and 100 nM CRF): highly significantly decreased | tau ([3]; in the absence of CRF and in the presence of 100 nM CRF, FIG. 32A): significantly decreased | p-tau/tau ratio ([3]; in the absence of CRF): decreased | p-tau ([3]; in the presence and absence of CRF, FIG. 32B): significantly reduced | sAPPα after exposure to CRF ([3]; versus control, FIG. 21C): lower | sAPPα ([3]; with and without CRF, FIG. 32D): trend for sAPPα to be higher | p-tau [4]: neither J14 nor J03 decreased | total tau [4]: neither J14 nor J03 decreased | brain levels ([5]; 10 mk subcutaneous (SQ) single injection, J20 mice, FIG. 10C): low | brain levels at the peak after oral delivery, compared with SQ ([5]; oral delivery by feeding (not gavage) at 10 mg/kg): slightly higher | NOR analysis of object memory (behavior) ([6]; J20 mice housed singly, SQ 10 mkd in PEG/b-MCD for 12 days, FIG. 10D): slight improvement | P-tau ([6]; SQ 10 mkd, 12 days): significantly lower | Aβ1-40 ([6]; SQ 10 mkd, 12 days, FIG. 10E): no difference | Aβ1-42 ([6]; SQ 10 mkd, 12 days, FIG. 10F): decrease | Aβ1-40/1-42 ratio ([6]; SQ 10 mkd, 12 days, FIG. 10G): significantly increased | SAPP ([6]; SQ 10 mkd, 12 days, FIG. 10H): very slightly increased | sAPP/Aβ1-42 ratio ([6]; SQ 10 mkd, 12 days, FIG. 10I): very slightly increased | ratio (p-tau and tau) ([6]; SQ 10 mkd, 12 days, great individual variation): slightly higher | total tau ([6]; SQ 10 mkd, 12 days, largely due to one mouse, FIG. 11A): decreased | novel location assay / preference [7, 11]: performed well | novel object assay [7, 11]: performed well | sAPPα ([7]; oral, FIG. 13A): increased slightly | sAPPβ ([7]; oral, FIG. 13B): unchanged | sAPPα/sAPPβ ratio ([7]; oral, FIG. 13C): slightly increased | Aβ1-40 ([7]; oral, FIG. 14A): unchanged | Aβ1-42 ([7]; oral, FIG. 14B): unchanged | Aβ1-40/Aβ1-42 ratio ([7]; oral, FIG. 14C): unchanged | p-tau ([7]; oral, decrease reached statistical significance, FIG. 16): decreased | activity ([8]; male and female J20 mice housed singly, not significant, FIG. 24A): lowered | novel object preference, overall ([8]; all mice, FIG. 24B): increased | sAPPα ([8]; both genders, FIG. 25A): increase | ratio sAPPα/sAPPβ ([8]; males, FIG. 25C): slight increase | p-tau [9]: decreased
